Assay results as given in the NIST ThermoML archive (doi:10.1016/j.fluid.2010.01.007).
± gives the expanded uncertainty stated by the source.

Experiment: activity coefficient (dimensionless); of the first substance listed, at infinite dilution; xn = mol fraction of the nth substance listed
Settings: Liquid, Chromatography, x1 = 0

| SMILES | activity coefficient (334.8 K) | activity coefficient (344.3 K) | activity coefficient (353.9 K) | activity coefficient (363.4 K) | activity coefficient (325.2 K) |
| --- | --- | --- | --- | --- | --- |
| CCCCC1CO1 (stereo unspecified) [1,2-epoxyhexane] + CCCCn1cc[n+](C)c1.F[P-](F)(F)(F)(F)F | 1.94 ± 0.07 | 2.19 ± 0.08 | 2.2 ± 0.08 | 2.14 ± 0.08 |  |
| CCC1CO1 (stereo unspecified) [ethyloxirane] + CCCCn1cc[n+](C)c1.F[B-](F)(F)F | 2.14 ± 0.08 | 2.08 ± 0.07 | 2.05 ± 0.07 | 2.1 ± 0.07 | 2.62 ± 0.09 |
| CC1(C)CO1 [2,2-dimethyloxirane] + CCCCn1cc[n+](C)c1.F[P-](F)(F)(F)(F)F | 1.09 ± 0.03 | 1.12 ± 0.03 | 1.21 ± 0.03 | 1.19 ± 0.04 |  |
| CC1CO1 (stereo unspecified) [methyloxirane] + CCCCn1cc[n+](C)c1.F[B-](F)(F)F | 1.33 ± 0.04 | 1.27 ± 0.03 | 1.32 ± 0.04 | 1.41 ± 0.04 | 1.35 ± 0.04 |
| CC1CO1 (stereo unspecified) [methyloxirane] + CCCCn1cc[n+](C)c1.F[P-](F)(F)(F)(F)F | 0.838 ± 0.021 | 0.828 ± 0.021 | 0.893 ± 0.021 | 0.872 ± 0.024 |  |
| CCCCC1CO1 (stereo unspecified) [1,2-epoxyhexane] + CCCCn1cc[n+](C)c1.F[B-](F)(F)F | 5.31 ± 0.19 | 5.3 ± 0.19 | 5.14 ± 0.18 | 5.2 ± 0.18 | 5.7 ± 0.2 |
| CCC1CO1 (stereo unspecified) [ethyloxirane] + CCCCn1cc[n+](C)c1.F[P-](F)(F)(F)(F)F | 1.13 ± 0.03 | 1.13 ± 0.03 | 1.19 ± 0.03 | 1.16 ± 0.03 |  |
| CC1(C)CO1 [2,2-dimethyloxirane] + CCCCn1cc[n+](C)c1.F[B-](F)(F)F | 2.13 ± 0.07 | 2.11 ± 0.07 | 2.06 ± 0.07 | 2.18 ± 0.08 | 2.19 ± 0.08 |
